# Measured values published in US20260176285A1, “SALT OF DIOXANE QUINOLINE COMPOUND, CRYSTAL FORM THEREOF, PREPARATION METHODS THEREFOR AND USES THEREOF” (Beijing Scitech-MQ Pharmaceuticals Limited, priority 2022, published 2026).
# Experiments:
# [1] = Dynamic solubility in water, SGF, FaSSIF and FeSSIF; assay type: physicochemical; design: S (dynamic solubility): unit not given here; conditions: listed as p-Toluenesulfonate salt crystal form A-II; for S (dynamic solubility): 37° C., feed 10 mg/mL
# Experimental: Biological solvent Preparation • 1. […] 67.5 μL of concentrated hydrochloric acid (12 M) was added and the mixture was adjusted to a pH value of 1.8 with 1 M hydrochloric acid or 1 M NaOH solution. Purified water was added to make up to volume. • 2. Preparation of Fasted State Simulated Intestinal Fluid (FaSSIF): 0.17 g of anhydrous NaH2PO4, 0.021 g of NaOH, and 0.31 g of NaCl were weighed into a 50-mL volumetric flask. About 48 mL of purified water was added to dissolve the mixture completely, and the solution was adjusted to a pH value of 6.5 with 1 M hydrochloric acid or 1 M NaOH solution. Purified water was added to make up to volume. 0.11 g of SIF powder was added and dissolved completely. • 3. Preparation of Fed State Simulated Intestinal Fluid (FeSSIF): 0.41 mL of glacial acetic acid, 0.20 g of NaOH and 0.59 g of NaCl were weighed into a 50-mL volumetric flask. About 48 mL of purified water was added to dissolve the mixture completely, and the solution was adjusted to a pH value of 5.0 with 1 M hydrochloric acid or 1 M NaOH solution. Purified water was added to make up to volume. 0.56 g of SIF powder was added and dissolved completely.
# The dynamic solubility of the free state, the mucate salt crystal form A-I, the p-toluenesulfonate salt crystal form A-II, the di-p-toluenesulfonate salt crystal form A-IV and the phosphate salt crystal form A-V of the compound of formula (I) in water and three biological solvents was evaluated.
# The samples at each time point were centrifuged and filtered (0.45 μm PTFE filter head), and the HPLC concentration and pH value of the filtrate were determined.
# [2] = Hygroscopicity by dynamic moisture sorption (DVS); assay type: physicochemical; conditions: DVS, listed as p-Toluenesulfonate salt crystal form A-II
# Experimental: Dynamic moisture sorption (DVS): The curves were collected on a DVS Intrinsic of SMS (Surface Measurement Systems). At 25° C., the humidity range was 0% RH-95% RH, the step was 10% (the last step was 5%), and the dm/dt was 0.002%/min.
# The hygroscopicity of the free compound of formula (I), mucate salt crystal form A-I, p-toluenesulfonate salt crystal forms A-II and B-III, di-p-toluenesulfonate salt crystal form A-IV and phosphate salt crystal form A-V was evaluated by dynamic moisture sorption instrument (DVS). Starting from 0% relative humidity (0% RH), the test collected the mass change percentage of the samples under constant temperature of 25° C. with humidity changes (0% RH-95% RH-0% RH).
# [3] = Solid-state stability evaluation (XRPD, HPLC); assay type: physicochemical; conditions: for Purity / Purity/initial purity: listed as p-Toluenesulfonate salt crystal form A-II
# Experimental: The following 6 test samples were placed under 25° C./60% RH and 40° C./75% RH conditions for 1 week, and then the physical and chemical stability of the samples was tested by XRPD and HPLC.
# At the same time, after the p-toluenesulfonate salt crystal form A-II and crystal form B-III solids were placed at 80° C. for 24 hours, the physical and chemical stability of the samples were tested by XRPD and HPLC.
# [4] = tested on: human lung cancer cells EBC-1; test: Efficacy in nude mouse tumor-bearing model of human lung cancer cells EBC-1; assay type: in vivo, Balb/c nude mouse
# From the text: In this assay, the free compound of formula (I) of the present application and different salts of the compound prepared in Examples 1, 2 and 5 were orally administered to a nude mouse tumor-bearing model of human lung cancer cells EBC-1 to study their effects on tumor growth.
# Preparation of test compounds: an appropriate weight of the test compound (including the free form of the compound of formula (I) and different salts of the compound prepared in Examples 1, 2 and 5) was weighed, completely suspended/dissolved in an appropriate volume of 0.1% sodium carboxymethyl cellulose, stirred and vortexed to give a uniform solution or suspension.
# Methods: All assays were authorized by the Animal Welfare Committee. EBC-1 in the logarithmic growth phase was inoculated into immune-deficient nude mice (BALB/c nude, female, 6-8 weeks old, weighing 18±2 g), subcutaneously on the right back, with a cell inoculation amount of 5×10^6/mouse. After the tumor grew to 150-200 mm^3, the animals were randomly divided into groups, 6 mice per group. The dose of each test substance was set at 15 mg/kg and 7.5 mg/kg (both based on the concentration of the effective formula (I) compound), and administered once a day for about 3 weeks. The test compounds were freshly prepared each day before use. During the assay, the tumor diameter was measured twice a week, and the mice were weighed at the same time. The calculation formula of tumor volume (TV) is: TV=1/2×a×b^2, where a and b represent length and width, respectively. The relative tumor volume (RTV) was calculated based on the measurement results, and the calculation formula is: RTV=Vt/V0, wherein V0 is the tumor volume measured at the time of cage grouping and dosing initiation (i.e., d0), and Vt is the tumor volume at each measurement. The evaluation index of antitumor activity is the relative tumor proliferation rate T/C (%), calculated as follows: T/C (%)=(TRTV/CRTV)×100%, TRTV: RTV of the treatment group; CRTV: RTV of the negative control group. T and C represent the average tumor volume at a certain time point in the drug administration group and the control group, respectively.
structure (smiles),measurement,setting,value
"O=C(Nc1ccc(F)cc1)C1(C(=O)Nc2ccc(Oc3ccnc4cc(OCCCN5CCOCC5)c5c(c34)OCCO5)c(F)c2)CC1 [Example 2, N-(3-fluoro-4-((5-(3-morpholinopropoxy)-2,3-dihydro-[1,4]dioxano[2,3-f]quinolin-10-yl)oxy)phenyl)-N-(4-fluorophenyl)cyclopropane-1,1-dicarboxamide]",S (dynamic solubility),"[1]; FaSSIF, 1 hour",0.073
same,pH of the filtrate,"[1]; FaSSIF, 1 hour",6.1
same,S (dynamic solubility),"[1]; FaSSIF, 2 hours",0.066
same,pH of the filtrate,"[1]; FaSSIF, 2 hours",6.1
same,S (dynamic solubility),"[1]; FaSSIF, 4 hours",0.059
same,pH of the filtrate,"[1]; FaSSIF, 4 hours",6.1
same,S (dynamic solubility),"[1]; FaSSIF, 24 hours",0.072
same,pH of the filtrate,"[1]; FaSSIF, 24 hours",5.1
same,S (dynamic solubility),"[1]; FeSSIF, 1 hour",1.8
same,pH of the filtrate,"[1]; FeSSIF, 1 hour",5.0
same,S (dynamic solubility),"[1]; FeSSIF, 2 hours",2.0
same,pH of the filtrate,"[1]; FeSSIF, 2 hours",5.0
same,S (dynamic solubility),"[1]; FeSSIF, 4 hours",1.5
same,pH of the filtrate,"[1]; FeSSIF, 4 hours",5.0
same,S (dynamic solubility),"[1]; FeSSIF, 24 hours",0.84
same,pH of the filtrate,"[1]; FeSSIF, 24 hours",5.0
same,S (dynamic solubility),"[1]; H2O, 1 hour",2.7
same,pH of the filtrate,"[1]; H2O, 1 hour",4.8
same,S (dynamic solubility),"[1]; H2O, 2 hours",2.7
same,pH of the filtrate,"[1]; H2O, 2 hours",4.9
same,S (dynamic solubility),"[1]; H2O, 4 hours",2.8
same,pH of the filtrate,"[1]; H2O, 4 hours",4.7
same,S (dynamic solubility),"[1]; H2O, 24 hours",2.5
same,pH of the filtrate,"[1]; H2O, 24 hours",4.2
same,S (dynamic solubility),"[1]; SGF, 1 hour",6.8
same,pH of the filtrate,"[1]; SGF, 1 hour",2.3
same,S (dynamic solubility),"[1]; SGF, 2 hours",completely dissolved
same,S (dynamic solubility),"[1]; SGF, 4 hours",completely dissolved
same,S (dynamic solubility),"[1]; SGF, 24 hours",6.3
same,pH of the filtrate,"[1]; SGF, 24 hours",2.3
same,Moisture adsorption (25° C./80% RH),[2]; 25° C./80% RH,0.52%
same,Hygroscopicity,[2]; 25° C.,Slightly
same,Purity,"[3]; 25° C./60% RH, 1 week",99.52 area %
same,Purity/initial purity,"[3]; 25° C./60% RH, 1 week",100.1%
same,Purity/initial purity,"[3]; 40° C./75% RH, 1 week",100.0%
same,Change of Crystal form,"[3]; 80° C., 24 hours",no
same,Purity,"[3]; 80° C., 24 hours",99.42 area %
same,T/C (relative tumor proliferation rate),"[4]; 7.5 mg/kg oral once a day, day 7",61.3%
same,T/C (relative tumor proliferation rate),"[4]; 7.5 mg/kg oral once a day, day 10",47.4%
same,T/C (relative tumor proliferation rate),"[4]; 7.5 mg/kg oral once a day, day 14",40.3%
same,T/C (relative tumor proliferation rate),"[4]; 7.5 mg/kg oral once a day, day 18",37.7%
same,T/C (relative tumor proliferation rate),"[4]; 7.5 mg/kg oral once a day, day 21",33.1%
same,T/C (relative tumor proliferation rate),"[4]; 15 mg/kg oral once a day, day 3",67.9%
same,T/C (relative tumor proliferation rate),"[4]; 15 mg/kg oral once a day, day 7",37.3%
same,T/C (relative tumor proliferation rate),"[4]; 15 mg/kg oral once a day, day 10",25.4%
same,T/C (relative tumor proliferation rate),"[4]; 15 mg/kg oral once a day, day 14",17.5%
same,T/C (relative tumor proliferation rate),"[4]; 15 mg/kg oral once a day, day 18",16.0%
same,T/C (relative tumor proliferation rate),"[4]; 15 mg/kg oral once a day, day 21",12.09%
